Patent US11633443B2, “Algal extract comprising sulphated and non-sulphated polyanionic polysaccharides and uses thereof” (Amadeite, priority 2012, dated 2023)
Entries after “also recorded” stand apart in the source; their conditions may differ. Counter-ions that a name gives are not always drawn.

System: adult male Wistar rats
Assay: Behavioural despair test (BDT)
Type: in vivo, rat
Method: The anti-depressant effects of an algal extract according to the invention (AE), administered orally as a preventive treatment with 3 doses (10, 20 and 40 mg/kg/d) were evaluated in adult male Wistar rats in the behavioural despair test (BDT).
The extract was daily administered as a semi-chronic treatment for 14 days. The effects of the extract were evaluated in the BDT on groups of 12 rats as compared with a control batch treated with the carrier (spring water) and a reference batch treated with Imipramine at the dose of 10 mg/kg/d.
Sixty male Wistar rats (Charles River Laboratories, France) weighing from 200-225 g were used. Upon receiving them, the rats were marked and distributed in groups of 4 in polycarbonate cages of the F type (48×27×20 cm, U.A.R., 91-Epinay-Sur-Orge, France). The animals were housed in an air-conditioned animal housing facility, at a temperature of 22±2° C. and a relative humidity of 50±20%. The rats had standard feed 2016 (Harlan, Gannat, France) and drink ad libitum. They were subject to a reverse light-darkness cycle of 12 hours.
After getting used to the conditions of the laboratory for one week, the rats were weighed and randomized according to their weight in 5 treatment groups (n=12/group).
The experimental devices consisted in Plexiglas cylinders with a height of 50 cm and a diameter of 20 cm filled with water at 25° C. up to a height of 30 cm.
After 13 days of daily treatment with the products to be tested, the rats were placed at D14 in the devices for a period of 15 minutes in order to evaluate the immobility time of each animal. Immediately after this first test, the rats received their 14th treatment.
At D15, the rats received two treatments: the first, 5 hours before the test and the second 1 hour before the test. This procedure is usually used in the literature for testing the efficiency of a product against depression. The test was conducted under the same conditions as the day before for a period of 5 minutes.
The recorded immobility duration during the first 5 minutes of both tests (at D14 and D15) reflects the capacity of the animal of resigning itself when it is confronted with a situation from which it cannot escape. This resignation behaviour is assimilated with depression.
The product is an AE (algal extract) as a powder representing a freeze-dried and crushed concentrated fraction of a water-soluble algal extract prepared according to Example no. 1. The extract to be tested was dissolved in spring water and was administered to the rats orally at one of the 3 tested doses for 15 successive days with an administration volume of 5 ml/kg. The animals were weighed every two or three days in order to adapt their specific treatments to their weight. Their food and water intakes were noted every two or three days during the whole duration of the study.
The animals of the Reference group receive daily 10 mg/kg/d of Imipramine hydrochloride (Sigma Aldrich) dissolved in spring water with an administration volume of 5 ml/kg.
ANOVA in parametric mode was applied, followed, in the case of heterogeneity, by comparisons by means of the non-paired t-test for comparing the treated groups with the Carrier group and the Reference group.
Paired ANOVA was used, followed, in the case of heterogeneity, by comparisons with the paired t-test for two by two comparisons of repeated measurements of BDT in each of the groups.

SMILES: CN(C)CCCN1c2ccccc2CCc2ccccc21 [Imipramine, Imipramine hydrochloride]
- immobility time at D15 compared with the Carrier (in words) (10 mg/kg/d): significantly shorter
- Immobility duration in the behavioural despair test at D15 (Average ± ESM) (10 mg/kg/d orally, 5 minutes test, n = 12): 3.8 ± 1.0 s
- Immobility duration in the behavioural despair pre-test at D14 (Average ± SME) (10 mg/kg/d orally, first 5 minutes, n = 12): 16.3 ± 4.6 s
- change of immobility time between D14 and D15 (in words) (10 mg/kg, hydrochloride): significantly decrease; also recorded: significantly reduced
- immobility duration at D14: difference between Carrier, Imipramine and AE groups (Imipramine 10 mg/kg, AE at the three tested doses (10, 20, 40 mg/kg)): no significant difference
